Assay results reported in patent US20050215544A1, “Methods of treating HIV infection” (priority 2004, published 2005).

Tests used:
HIV-1 LAI [1] = assay: Two-drug combination antiviral assay with Compound 1 (combination indices, Chou and Rideout); assay type: cell-based; settings: combination with Compound 1; for Combination Indices at 50% HIV Inhibition (Confidence Interval) / Combination Indices at 75% HIV Inhibition (Confidence Interval) / Combination Indices at 90% HIV Inhibition (Confidence Interval): 95% CI in parenthesis; for Overall Result of two-drug combination: all ratios and inhibition levels
Description: (§1) Virus and cell lines. The T-cell lines, MT-2 and PM-1 were obtained through the AIDS Research and Reference Reagent Program, NIAID, and were contributed by Dr. D. Richman and Dr. R. Gallo, respectively. Both cell lines were cultured in RPMI 1640 medium supplemented with 10% fetal bovine serum, 2 mM L-glutamine and sub-cultured twice a week. The LAI strain of HIV-1 was obtained from the Fred Hutchinson Cancer Research Center, and the Bal strain was from NIH. Both virus stocks were amplified and titered in MT-2 cells (LAI) and PM-1 cells (Bal) using a virus infectivity assay.
(§2) Drug Susceptibility and Cytotoxicity Assays. For drug susceptibility assays, MT-2 cells were infected with HIV-1 LAI (or PM-1 cells with HIV-1 Bal) at an MOI of 0.005, and seeded into 96-well microtiter plates ([…] cells/ml) containing serial dilutions of test compounds. […] Each drug ratio consisted of an array of 3-fold serial dilutions, and was performed in quadruplicate. The plates were incubated at 37° C./5% CO2. The MT-2 cells infected with HIV-1 LAI were incubated for 5 days. On day-five post-infection, 20 μl from each well was harvested and quantitated by a reverse transcriptase (RT) assay, or in samples involving non-nucleoside RT inhibitors, an MTS assay. The PM-1 cells infected with HIV-1 Bal and used for studying the combinations with CCR5 inhibitors were incubated for six days. On day-six post-infection, 20 μl from each well was harvested, 20- and 50-fold diluted and quantitated by p24 assay. Cytotoxicity assays were performed using uninfected cells, exposed to the same drug combinations, and incubated for six days. Cell viability was determined by an MTS assay. The CC50 values were calculated by using the exponential form of the median effect equation as mentioned below for calculation of EC50.
Analysis of Drug Combination Effects. For determination of CI values, drugs were diluted in a fixed ratio and multiple ratios were analyzed. The drug serial dilutions spanned a range of concentrations near the EC50 value of each compound, so that equivalent antiviral activities could be compared. Concentration-response curves were estimated for each individual drug and every combination using the median-effect equation. The equation was fit using a nonlinear regression routine (Proc Nlin) in PC SAS version 8.01 (SAS Institute Inc., SAS Version 8.01, Cary, NC: SAS Institute Inc., 1990).
(§3) In this equation, Fa stands for “fraction affected,” and represents the fraction of the viral load that has been inactivated. […] ED50 is drug concentration that is expected to reduce the amount of virus by 50%, and m is a parameter that reflects the slope of the concentration-response curve.
To assess antiviral effects of different drug combination treatments, combination indices (CIs) were calculated according to Chou and Rideout. The combination index was computed as CI=[D]1/[Dm]1+[D]2/[Dm]2
In this equation [Dm]1 and [Dm]2 are the concentrations of drugs that would individually produce a specific level of effect, while [D]1 and [D]2 are the concentrations of drugs in combination that would produce the same level of effect.
Theoretically, additivity is implied if the CI is equal to one, synergy if the CI is less than one, and antagonism if the CI is greater than one. […] At best, we can construct a range that contains the likely values for the CI, given the noise in the data. In this report, these ranges are reported in parentheses next to each point estimate of the CI. […] If the range fell entirely above 1.0, we would infer antagonistic behavior. If the range were to include 1.0, we would infer additivity.

HIV-1 LAI [2] = assay: microbe, parasite or virus in culture; settings: Human immunodeficiency virus 1, MT2, 120 h
Description: as §1, §2, §3
In carrying out the combination experiments below, the EC50 for Compound 1 and each comparator compound was determined during the course of each study, and used in the subsequent data analysis.

[3] = EC50 ratio 1:1 (Compound 1 to comparator)
[4] = EC50 ratio 1:2.5 (Compound 1 to comparator)
[5] = EC50 ratio 2.5:1 (Compound 1 to comparator)

| Structure (SMILES) | Combination Indices at 50% HIV Inhibition (Confidence Interval) (HIV-1 LAI [1]; [3]) | Combination Indices at 75% HIV Inhibition (Confidence Interval) (HIV-1 LAI [1]; [3]) | Combination Indices at 90% HIV Inhibition (Confidence Interval) (HIV-1 LAI [1]; [3]) | Combination Indices at 50% HIV Inhibition (Confidence Interval) (HIV-1 LAI [1]; [4]) | Combination Indices at 75% HIV Inhibition (Confidence Interval) (HIV-1 LAI [1]; [4]) | Combination Indices at 90% HIV Inhibition (Confidence Interval) (HIV-1 LAI [1]; [4]) | Combination Indices at 50% HIV Inhibition (Confidence Interval) (HIV-1 LAI [1]; [5]) | Combination Indices at 75% HIV Inhibition (Confidence Interval) (HIV-1 LAI [1]; [5]) | Combination Indices at 90% HIV Inhibition (Confidence Interval) (HIV-1 LAI [1]; [5]) | Overall Result of two-drug combination (HIV-1 LAI [1]) | EC50 (HIV-1 LAI [2]) [nM] | Overall Result of two-drug combination (HIV-1 LAI [1]; listed as delavirdine) | Overall Result of two-drug combination (HIV-1 LAI [1]; listed as efavirenz) |
| --- | --- | --- | --- | --- | --- | --- | --- | --- | --- | --- | --- | --- | --- |
| Nc1nc(NC2CC2)c2ncn([C@H]3C=C[C@@H](CO)C3)c2n1 [Abacavir] | 0.18 (0.13, 0.23) | 0.47 (0.30, 0.64) | 1.23 (0.52, 1.94) | 0.34 (0.27, 0.41) | 0.64 (0.45, 0.83) | 1.22 (0.65, 1.79) | 0.23 (0.19, 0.28) | 0.42 (0.30, 0.53) | 0.75 (0.42, 1.07) | Additive- | 528 |  |  |
| CC(C)CN(C[C@@H](O)[C@H](Cc1ccccc1)NC(=O)O[C@H]1CCOC1)S(=O)(=O)c1ccc(N)cc1 [Amprenavir] | 0.47 (0.33, 0.62) | 0.76 (0.44, 1.09) | 1.37 (6.46, 2.28) | 0.63 (0.45, 0.81) | 0.72 (0.44, 1.01) | 0.99 (0.38, 1.60) | 0.20 (0.12, 0.28) | 0.60 (0.28, 0.92) | 1.87 (0.24, 3.50) | Additive- | 35 |  |  |
| COC(=O)N[C@H](C(=O)N[C@@H](Cc1ccccc1)[C@@H](O)CN(Cc1ccc(-c2ccccn2)cc1)NC(=O)[C@@H](NC(=O)OC)C(C)(C)C)C(C)(C)C [Atazanavir] | 0.76 (0.64, 0.89) | 0.89 (0.69, 1.10) | 1.07 (0.68, 1.46) | 0.28 (0.25, 0.31) | 0.38 (0.33, 0.44) | 0.54 (0.42, 0.66) | 0.08 (0.07, 0.09) | 0.14 (0.12, 0.17) | 0.25 (0.18, 0.33) | Additive- | 0.5 |  |  |
| O=C(C(=O)N1CCN(C(=O)c2ccccc2)CC1)c1c[nH]c2c(-n3ccnn3)ncc(F)c12 [Compound 1, 1-Benzoyl-4-[2-[4-fluoro-7-(1H-1,2,3-triazol-1-yl)-1H-pyrrolo[2,3-c]pyridin-3-yl]-1,2-dioxoethyl]-piperazine] |  |  |  |  |  |  |  |  |  | synergistic or additive-synergistic | 0.1 to 0.3 |  |  |
| CC(C)Nc1cccnc1N1CCN(C(=O)c2cc3cc(NS(C)(=O)=O)ccc3[nH]2)CC1 [Delavirdine] | 0.79 (0.55, 1.03) | 0.59 (0.35, 0.84) | 0.45 (0.16, 0.73) | 0.99 (0.72, 1.26) | 0.90 (0.56, 1.23) | 0.81 (0.34, 1.29) | 0.56 (0.28, 0.84) | 0.51 (0.16, 0.86) | 0.45 (0.00, 0.95) | Additive- | 99 | additive to synergistic |  |
| O=c1[nH]cnc2c1ncn2[C@H]1CC[C@@H](CO)O1 [Didanosine] | 0.91 (0.74, 1.09) | 0.88 (0.65, 1.11) | 0.88 (0.52, 1.24) | 0.22 (0.19, 0.25) | 0.18 (0.14, 0.22) | 0.16 (0.10, 0.21) | 1.02 (0.83, 1.22) | 0.96 (0.70, 1.21) | 0.91 (0.53, 1.29) | Additive- | 644 |  |  |
| O=C1Nc2ccc(Cl)cc2[C@@](C#CC2CC2)(C(F)(F)F)O1 [Efavirenz] | 0.93 (0.74, 1.12) | 0.70 (0.51, 0.90) | 0.57 (0.32, 0.82) | 0.71 (0.58, 0.85) | 0.85 (0.62, 1.08) | 1.10 (0.64, 1.56) | 0.82 (0.62, 1.02) | 0.83 (0.55, 1.12) | 0.89 (0.41, 1.36) | Additive- | 0.6 |  | additive to synergistic |
| Nc1nc(=O)n([C@@H]2CS[C@H](CO)O2)cc1F [Emtricitabine] | 0.56 (0.49, 0.62) | 0.39 (0.34, 0.45) | 0.28 (0.22, 0.33) | 0.45 (0.38, 0.51) | 0.62 (0.50, 0.74) | 0.86 (0.59, 1.14) | 0.22 (0.20, 0.24) | 0.32 (0.28, 0.37) | 0.48 (0.38, 0.58) | Synergistic | 36 |  |  |
| CC(C)(C)NC(=O)[C@@H]1CN(Cc2cccnc2)CCN1C[C@@H](O)C[C@@H](Cc1ccccc1)C(=O)N[C@H]1c2ccccc2C[C@H]1O [Indinavir] | 0.73 (0.58, 0.88) | 0.75 (0.54, 0.97) | 0.77 (0.42, 1.12) | 0.42 (0.22, 0.63) | 0.57 (0.20, 0.95) | 0.78 (0.00, 1.64) | 0.56 (0.43, 0.69) | 0.67 (0.45, 0.89) | 0.81 (0.38, 1.23) | Moderate- | 1 |  |  |
| Cc1cn([C@H]2C[C@H](N=[N+]=[N-])[C@@H](CO)O2)c(=O)[nH]c1=O [Zidovudine] | 0.30 (0.17, 0.42) | 0.48 (0.20, 0.76) | 0.78 (0.05, 1.51) | 0.20 (0.16, 0.25) | 0.30 (0.21, 0.40) | 0.45 (0.22, 0.68) | 0.04 (0.03, 0.04) | 0.04 (0.03, 0.05) | 0.04 (0.03, 0.05) | Synergistic |  |  |  |
